From EP1056460B1, “PHARMACEUTICAL PREPARATIONS FOR SELECTIVELY SUPPLEMENTING OESTROGEN DEFICIENCY IN THE CENTRAL NERVOUS SYSTEM” (priority 1998, dated 1999)

How the values were obtained:
Uterus [1] = assay: Uterus wet weight after chronic subcutaneous application (osmotic minipumps, 7 days) in ovariectomised rats; format: in vivo, Wistar-Ratten
Source text: Geschlechtsreife (drei Monate alt, Gewicht 250±30 g) weibliche Wistar-Ratten (Tierzucht Schönwalde GmbH, Deutschland) wurden unter Ketamin-Narkose ovarektomiert. […] Am 7. Behandlungstag wurden die Tiere getötet und die Uterus-Feuchtgewichte (bezogen auf 100 g Körpergewicht) ermittelt.
Geschlechtsreife (drei Monate alt, Gewicht 250±30 g) weibliche Wistar-Ratten (Tierzucht Schönwalde GmbH, Deutschland) wurden unter Ketamin-Narkose ovarektomiert. […] Unmittelbar nach der Tötung der Tiere, wurden die Uterus-Feuchtgewichte (bezogen auf 100 g Körpergewicht) ermittelt. Die Messenger-Ribonukleinsäure (mRNA), die die Biosynthese von Oxytozin codiert, wurde durch in-situ-Hybridisierung mit einer spezifischen radioaktiv-markierten Oligodeoxynukleotid-Sonde nach einer etablierten Methode (Fischer D et al, Lactation as a model of naturally reversible hypercorticalism: plasticity in the mechanism governing hypothalamo-pituitary-adrenal activity in the rat, J Clin Invest 96: 1208-1215, 1995), 1995) im hypothalamischen Nucleus paraventricularis (PVN) dargestellt. Behandlungsbedingte Veränderungen in der Transkription des Oxytocin-Gens wurden durch densitometrische Messungen der spezifischen Hybridisierungssignale innerhalb der definierten anatomischen Stukturen quantifiziert.
(§1) Jeder Punkt stellt x ± SEM von 5-7 Einzelbestimmungen.

[2] = test system: Alpha-Isoform des Estrogenrezeptors (ERa); assay: Activation of transcription of an ERa-dependent luciferase reporter gene in MCF-7/2A cells; format: cell-based; settings: EREwtcLUC reporter, 10^-11 to 10^-8 M, 48 h, fold lower than 17b-Estradiol
Source text: Brustkrebszellen MCF-7/2A, die die Alpha-Isoform des Estrogenrezeptors (ERa) exprimieren, wurden mit dem Reporter-Plasmid EREwtcLUC stabil transfiziert. Der Reporter enthält den Estrogen-Response Element (ERE) von Vitellogenin, einen Thymidinkinase-Promotor und das Luciferase-codierende Gen von Photinus pyralis. […] Die Zellen wurden lysiert und die Transkription des Luciferase-Reportergens wurde durch Bestimmung der Luciferase-Aktivität mit einem spezifischen Testansatz (Serva/Promega, Deutschland) ermittelt.
Die Figur stellt die Mittelwerte von zwei unabhängigen Versuchen dar.

Oxytocin-Gens = assay: Oxytocin mRNA in the hypothalamic paraventricular nucleus by in-situ hybridisation after chronic treatment in vivo; parameters: species or system Wistar-Ratten; settings: ovariectomised rats, 0,01, 0,1 and 1 µg daily s.c. for 7 days; effect of the prototype very similar to 17b-Estradiol
Source text: Geschlechtsreife (drei Monate alt, Gewicht 250±30 g) weibliche Wistar-Ratten (Tierzucht Schönwalde GmbH, Deutschland) wurden unter Ketamin-Narkose ovarektomiert. […] Unmittelbar nach der Tötung der Tiere, wurden die Uterus-Feuchtgewichte (bezogen auf 100 g Körpergewicht) ermittelt. […] Behandlungsbedingte Veränderungen in der Transkription des Oxytocin-Gens wurden durch densitometrische Messungen der spezifischen Hybridisierungssignale innerhalb der definierten anatomischen Stukturen quantifiziert.
as §1

bcl-2 = bcl-2 transcripts in the dentate gyrus of the hippocampus by in-situ hybridisation after chronic treatment in vivo; parameters: species or system Wistar-Ratten; settings: ovariectomised rats, 0,01, 0,1 and 1 µg daily s.c. for 7 days; effect of the prototype identical to equal doses of 17b-Estradiol
Source text: Das Untersuchungsmaterial stammte von Tieren, die im unter Beispiel 3 beschriebenen Experiment behandelt wurden. […] Bcl-2-Transkripte wurden in Hirnschnitten durch in-situ-Hybridisierung mit einer spezifischen Oligonukleotid-Sonde (Clark RSB et al., Apoptosis-suppressor gene bcl-2 expression after traumatic brain injury in rats, J Neurosci 17: 9172-9182, 1997) dargestellt, und nach der im Beispiel 3 beschriebenen Methode densitometrisch quantifiziert.

Oxytozin-Rezeptoren = assay: Density of oxytocin receptors in brain and myometrium by 125I-OVTA autoradiography after 7 days of treatment; format: in vivo, Ratten; settings: 1 µg daily s.c. for 7 days
Source text: Jede Säule repräsentiert x ± SEM von 4-5 Einzelbestimmungen.

Endometriums = assay: Computer-aided measurement of endometrium thickness in uterus preparations; format: in vivo, Ratten; settings: ovariectomised rats, 1 µg daily s.c. for 7 days
kognitive Leistung = assay: Conditioned escape behaviour (retention and extinction) in ovariectomised rats after chronic treatment; format: in vivo, Wistar-Ratten; settings: 30 µg daily s.c., retention tested on day 7
Source text: (§2) Eine Korrelation zwischen Serum-Estrogenspiegel und kognitiver Leistung wurde auch im Tierversuchsmodell nachgewiesen (Kondo Y, Suzuki K, Sakuma Y, Estrogen aleviates cognitive dysfunction following transient brain ischemia in ovariectomized gerbils, Neurosci Lett 238: 45-48, 1997). […] Die gesamte Behandlungsdauer war 14 Tage. Am 5. und 6. Behandlungstag wurden Trainingssitzungen zum Erlernen eines konditionierten Escape-Verhaltens nach einer etablierten Methode (Diaz-Veliz G et al., Influence of the estrous cycle, ovariectomy and estradiol replacement upon the acquisition of conditioned avoidance responses in rats, Physiol Behav 46: 397-401, 1989) durchgeführt. Jedes Tier wurde in einer Sitzung 50 Mal der Kombination aus einem unbedingten (elektrische Reizung) und zwei konditionierenden Stimuli (Licht- und Schall-Signal) exponiert. Am 7. Behandlungstag wurde die Retention des erlernten Verhaltensmusters getestet. Nach einer 6-tägigen Unterbrechung der Lernsitzungen, wurde am 14. Behandlungstag die Extinktion des erlernten konditionierten Verhaltens ermittelt. Die Anzahl der korrekten Verhaltensreaktionen (Escape in das "sichere" Abteil des Apparats innerhalb von drei Sekunden nach Präsentation der konditionierenden Signale) aus 50 aufeinanderfolgenden Expositionen wurde als Kriterium für die Bewertung der Retention bzw. Extinktion des erlernten Verhaltens verwendet.

Uterus [3] = assay: Uterus weight after 14 days of daily subcutaneous treatment (cognition experiment); format: in vivo, Wistar-Ratten; settings: for Uterusgewichte (x ± SEM): after 14 days of daily s.c. treatment: 17b-Estradiol 1 µg, 17a-Estradiol 100 µg, prototype 30 µg, n = 8-10, OVX 53 ± 2
Source text: as §2

[4] = Serum concentration of 17b-Estradiol after 7 days of subcutaneous treatment (biotransformation); format: in vivo, Ratten; settings: ovariectomised rats, daily s.c. for 7 days: 17a-Estradiol 100 µg, prototype 30 µg, 17b-Estradiol 1 µg; placebo below detection limit
Source text: Sternzeichen bezeichnen signifikante Differenzen im Vergleich zu den Werten, die bei Placebo-behandelten Tieren gemessen wurden; die Letzteren waren unterhalb der Nachweisgrenze der Methode; jede Behandlungsgruppe bestand aus 7 Tieren.

SMILES	Wirksamkeit im weiblichen Genitaltrakt im Vergleich mit 17a-Estradiol (Uterus [1]; comparison in words)	Wirksamkeit im weiblichen Genitaltrakt, geringer als diese von 17b-Estradiol (Uterus [1]; fold lower than 17b-Estradiol, from uterotropic daily doses)	Uterus-Vergrößerung (Uterus [1]; ovariectomised rats, 0,01, 0,1 and 1 µg daily s.c. for 7 days (Example 3))	Tagesdosen für signifikante Vergrößerung des Uterus (uterotroper Effekt) (Uterus [1]; ovariectomised rats, s.c. osmotic minipumps, 7 days, uterus wet weight per 100 g body weight)	Effizienz (Transkription des Reporters), geringer als diese von 17b-Estradiol [2]	Transkription des Oxytozin-Gens im PVN (Oxytocin-Gens)	Expression von bcl-2 im Gyrus dentatus (bcl-2)	Dichte von Oxytozin-Rezeptoren in allen untersuchten Hirnstrukturen (Oxytozin-Rezeptoren; VMN and BNST, ovariectomised rats, 50 pM 125I-OVTA)	Dichte von Oxytozin-Rezeptoren im VMN im Vergleich mit 17b-Estradiol (Oxytozin-Rezeptoren; VMN)	Induktion von Oxytozin-Bindungsstellen im Myometrium (Oxytozin-Rezeptoren; ovariectomised rats)	Stärke des Endometriums (endometriale Proliferation) (Endometriums)	Retention des erlernten Verhaltensmusters (kognitive Leistung)	Uterusgewichte (x ± SEM) (Uterus [3])	uterotrope Wirkung im Vergleich mit 17b-Estradiol in einer täglichen Dosis von 1 µg (Uterus [3]; prototype 30 µg daily s.c., 14 days)	Serumkonzentrationen von 17b-Estradiol [4]
C[C@]12CCC3=C(CCc4cc(O)ccc43)[C@@]13C[C@H]3C[C@H]2O [15βH,3'H-Cycloprop[14,15]-estra-1,3,5(10),8-tetraen-3,17α-diol]	vergleichbar mit derjenigen von 17a-Estradiol	~1000 -fach	keiner Uterus-Vergrößerung	30 µg	10 -fach	dosisabhängig stimuliert	dosisabhängigen Stimulation	signifikanten Anstieg	schwächeren Effekt als 17b-Estradiol	signifikant geringere Wirkung	nicht beeinflussen	estrogen-ähnlichen stimulierenden Effekt	108 ± 4 mg/100g KG	signifikant geringer	keinen Anstieg
C[C@]12CC[C@@H]3c4ccc(O)cc4CC[C@H]3[C@@H]1CC[C@H]2O [17a-Estradiol]										signifikant geringere Wirkung	nicht beeinflussen				meßbare Konzentrationen
C[C@]12CC[C@@H]3c4ccc(O)cc4CC[C@H]3[C@@H]1CC[C@@H]2O [17b-Estradiol]											signifikante endometriale Proliferation		187 ± 9 mg/100g KG		meßbare Konzentrationen
